Molecules are shown by their SMILES. Active and inactive are the calls of the source. The rule behind the calls is not given here.

Sequence of Histone deacetylase 3 (O15379 whole entry): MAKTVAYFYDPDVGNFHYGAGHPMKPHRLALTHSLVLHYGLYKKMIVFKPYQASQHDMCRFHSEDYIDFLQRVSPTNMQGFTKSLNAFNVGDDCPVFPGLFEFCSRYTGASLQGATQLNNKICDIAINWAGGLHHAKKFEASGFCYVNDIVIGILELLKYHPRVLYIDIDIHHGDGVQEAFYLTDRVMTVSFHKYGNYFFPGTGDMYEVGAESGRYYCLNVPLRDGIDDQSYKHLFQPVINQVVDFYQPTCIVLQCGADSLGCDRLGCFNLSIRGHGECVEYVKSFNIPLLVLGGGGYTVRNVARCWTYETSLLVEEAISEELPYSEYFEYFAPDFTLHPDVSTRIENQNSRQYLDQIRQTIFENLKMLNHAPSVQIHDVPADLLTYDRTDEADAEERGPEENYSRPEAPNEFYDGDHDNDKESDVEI

The target in the first experiment is DNA topoisomerase 2-alpha (Homo sapiens) (UniProt P11388). The experiment can be described thus: Inhibition of Topoisomerase 2 (unknown origin) assessed as impairment of pBR322 DNA decatenation at 100 uM after 30 mins by agarose gel electrophoresis.
Sequence of DNA topoisomerase 2-alpha (Homo sapiens) (P11388 whole entry): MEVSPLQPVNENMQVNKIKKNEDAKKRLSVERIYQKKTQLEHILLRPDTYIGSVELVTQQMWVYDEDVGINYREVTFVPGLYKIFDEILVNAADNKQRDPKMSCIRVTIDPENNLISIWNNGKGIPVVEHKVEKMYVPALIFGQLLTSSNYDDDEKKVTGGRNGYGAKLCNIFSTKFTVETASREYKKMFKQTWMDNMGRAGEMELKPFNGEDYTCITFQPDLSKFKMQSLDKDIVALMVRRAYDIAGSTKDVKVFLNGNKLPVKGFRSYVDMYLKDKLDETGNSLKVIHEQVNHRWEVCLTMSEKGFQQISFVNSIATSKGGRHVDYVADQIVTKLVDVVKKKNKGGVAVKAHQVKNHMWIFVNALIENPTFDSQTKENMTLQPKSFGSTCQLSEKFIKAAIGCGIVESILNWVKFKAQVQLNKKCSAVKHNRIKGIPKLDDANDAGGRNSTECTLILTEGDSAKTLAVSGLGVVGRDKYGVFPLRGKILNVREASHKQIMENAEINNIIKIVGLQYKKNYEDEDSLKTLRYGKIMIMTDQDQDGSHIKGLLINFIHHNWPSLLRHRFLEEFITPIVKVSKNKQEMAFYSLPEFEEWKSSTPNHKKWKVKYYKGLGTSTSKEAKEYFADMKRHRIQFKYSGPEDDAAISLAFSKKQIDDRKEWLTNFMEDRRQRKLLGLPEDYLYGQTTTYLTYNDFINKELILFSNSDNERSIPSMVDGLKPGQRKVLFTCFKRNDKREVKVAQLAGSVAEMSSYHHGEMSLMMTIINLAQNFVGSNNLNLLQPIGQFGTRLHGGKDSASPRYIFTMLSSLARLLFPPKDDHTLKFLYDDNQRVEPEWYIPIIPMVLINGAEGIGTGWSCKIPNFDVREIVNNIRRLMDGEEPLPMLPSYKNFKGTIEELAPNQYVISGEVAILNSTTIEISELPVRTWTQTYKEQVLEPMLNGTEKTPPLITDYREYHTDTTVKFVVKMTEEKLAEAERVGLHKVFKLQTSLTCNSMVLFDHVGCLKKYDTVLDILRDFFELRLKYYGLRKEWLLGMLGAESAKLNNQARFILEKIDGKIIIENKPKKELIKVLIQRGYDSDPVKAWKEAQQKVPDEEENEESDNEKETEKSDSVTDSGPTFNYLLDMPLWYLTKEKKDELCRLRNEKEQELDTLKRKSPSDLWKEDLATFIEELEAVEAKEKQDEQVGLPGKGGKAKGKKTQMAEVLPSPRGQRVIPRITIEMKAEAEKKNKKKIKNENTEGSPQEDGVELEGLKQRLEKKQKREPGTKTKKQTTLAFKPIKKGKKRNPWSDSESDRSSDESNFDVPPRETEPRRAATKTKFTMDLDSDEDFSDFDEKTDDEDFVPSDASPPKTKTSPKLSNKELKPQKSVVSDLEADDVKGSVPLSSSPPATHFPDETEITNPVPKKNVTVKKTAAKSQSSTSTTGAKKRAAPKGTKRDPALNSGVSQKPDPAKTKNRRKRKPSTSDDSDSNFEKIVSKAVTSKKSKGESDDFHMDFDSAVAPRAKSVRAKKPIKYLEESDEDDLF
Conditions: not given
Regarding `COc1cc([C@@H]2c3cc4c(cc3[C@@H](Nc3cccc(NC(=O)CCCCCCC(=O)NO)c3)[C@H]3COC(=O)[C@H]23)OCO4)cc(OC)c1O`, the inhibition entry was “Active”.

With `COc1cc([C@@H]2c3cc4c(cc3[C@@H](Nc3ccc(OCCCCCCC(=O)NO)cc3)[C@H]3COC(=O)[C@H]23)OCO4)cc(OC)c1O`, the inhibition entry is “Active”.

As to `COc1cc([C@@H]2c3cc4c(cc3[C@@H](Nc3ccccc3OCCCCCCC(=O)NO)[C@H]3COC(=O)[C@H]23)OCO4)cc(OC)c1O`, the inhibition entry is “Active”.

As for `COc1cc([C@@H]2c3cc4c(cc3[C@@H](O[C@@H]3O[C@@H]5CO[C@@H](C)O[C@H]5[C@H](O)[C@H]3O)[C@H]3COC(=O)[C@H]23)OCO4)cc(OC)c1O` [ETOPOSIDE], the inhibition result was “Active”.

Another experiment deals with T1, Protein deacetylase HDAC6 (Homo sapiens, UniProt Q9UBN7).
T1 sequence (Q9UBN7 whole entry): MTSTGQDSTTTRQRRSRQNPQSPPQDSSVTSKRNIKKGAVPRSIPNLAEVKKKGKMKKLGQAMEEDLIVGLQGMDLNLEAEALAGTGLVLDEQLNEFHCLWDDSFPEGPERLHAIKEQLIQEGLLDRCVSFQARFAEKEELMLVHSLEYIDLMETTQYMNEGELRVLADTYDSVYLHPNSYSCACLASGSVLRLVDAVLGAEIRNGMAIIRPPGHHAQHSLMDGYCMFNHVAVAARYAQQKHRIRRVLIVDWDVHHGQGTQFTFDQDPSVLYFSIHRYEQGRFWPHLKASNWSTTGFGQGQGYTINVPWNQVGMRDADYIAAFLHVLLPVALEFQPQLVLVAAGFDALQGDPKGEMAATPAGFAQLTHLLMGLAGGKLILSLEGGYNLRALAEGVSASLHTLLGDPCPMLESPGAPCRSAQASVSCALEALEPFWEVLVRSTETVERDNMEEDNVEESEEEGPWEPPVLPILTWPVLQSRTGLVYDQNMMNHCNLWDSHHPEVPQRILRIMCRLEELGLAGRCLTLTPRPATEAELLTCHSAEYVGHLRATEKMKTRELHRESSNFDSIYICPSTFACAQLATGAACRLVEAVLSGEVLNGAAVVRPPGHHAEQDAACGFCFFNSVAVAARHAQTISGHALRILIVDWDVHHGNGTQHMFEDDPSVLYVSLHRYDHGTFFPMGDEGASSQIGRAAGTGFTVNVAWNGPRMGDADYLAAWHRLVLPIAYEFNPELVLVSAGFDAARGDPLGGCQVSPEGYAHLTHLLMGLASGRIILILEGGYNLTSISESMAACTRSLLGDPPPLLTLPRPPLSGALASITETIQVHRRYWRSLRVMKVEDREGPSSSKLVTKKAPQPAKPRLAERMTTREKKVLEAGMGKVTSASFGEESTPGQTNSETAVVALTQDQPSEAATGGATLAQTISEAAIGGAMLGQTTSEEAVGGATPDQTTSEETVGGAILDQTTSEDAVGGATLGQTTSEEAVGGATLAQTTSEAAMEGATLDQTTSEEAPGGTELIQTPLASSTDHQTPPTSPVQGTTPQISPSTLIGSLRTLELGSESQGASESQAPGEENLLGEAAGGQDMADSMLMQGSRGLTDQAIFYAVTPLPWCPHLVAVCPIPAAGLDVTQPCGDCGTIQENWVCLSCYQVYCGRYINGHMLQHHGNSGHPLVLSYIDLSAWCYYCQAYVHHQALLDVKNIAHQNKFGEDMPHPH
Put plainly: Inhibition of human recombinant HDAC6 expressed in baculovirus infected insect high5 cells using Boc-Lys (epsilon-acetyl)-AM) as substrate after 3 to 24 hrs by fluorescence assay.
Conditions: not given
For the compound `COc1cc([C@@H]2c3cc4c(cc3[C@@H](Nc3cccc(NC(=O)CCCCCCC(=O)NO)c3)[C@H]3COC(=O)[C@H]23)OCO4)cc(OC)c1O`, the IC50 is 0.04 µM.

On to `COc1cc([C@@H]2c3cc4c(cc3[C@@H](Nc3ccc(OCCCC(=O)NO)cc3)[C@H]3COC(=O)[C@H]23)OCO4)cc(OC)c1O`, for which the IC50 worked out at 0.214 µM.

On to `COc1cc([C@@H]2c3cc4c(cc3[C@@H](Nc3ccc(OCCCCCCC(=O)NO)cc3)[C@H]3COC(=O)[C@H]23)OCO4)cc(OC)c1O`, for which the IC50 came to 0.016 µM.

In the case of `COc1cc([C@@H]2c3cc4c(cc3[C@@H](Nc3ccccc3OCCCCCCC(=O)NO)[C@H]3COC(=O)[C@H]23)OCO4)cc(OC)c1O`, the IC50 came out at 0.027 µM.

Regarding `COc1cc([C@@H]2c3cc4c(cc3[C@@H](Nc3ccc(NC(=O)CCCCCC(=O)NO)cc3)[C@H]3COC(=O)[C@H]23)OCO4)cc(OC)c1O`, the IC50 came to 0.13 µM.

`COc1cc([C@@H]2c3cc4c(cc3[C@@H](Nc3ccccc3OCCCCC(=O)NO)[C@H]3COC(=O)[C@H]23)OCO4)cc(OC)c1O`: the IC50 stood at 0.084 µM.

Another experiment concerns the target Histone deacetylase 3 (Homo sapiens, UniProt O15379). The experiment can be described thus: Inhibition of human recombinant HDAC3 expressed in baculovirus infected insect high5 cells using Ac-Lys-Tyr-Lys (epsilon-acetyl)-AMC as substrate after 3 to 24 hrs by fluorescence assay.
Conditions: not given
As for `COc1cc([C@@H]2c3cc4c(cc3[C@@H](Nc3cccc(NC(=O)CCCCCCC(=O)NO)c3)[C@H]3COC(=O)[C@H]23)OCO4)cc(OC)c1O`, the IC50 came out at 0.13 µM.

For the compound `COc1cc([C@@H]2c3cc4c(cc3[C@@H](Nc3ccc(OCCCC(=O)NO)cc3)[C@H]3COC(=O)[C@H]23)OCO4)cc(OC)c1O`, the IC50 was 0.193 µM.

Consider `COc1cc([C@@H]2c3cc4c(cc3[C@@H](Nc3ccc(OCCCCCCC(=O)NO)cc3)[C@H]3COC(=O)[C@H]23)OCO4)cc(OC)c1O`, for which the IC50 stood at 0.049 µM.

Take `COc1cc([C@@H]2c3cc4c(cc3[C@@H](Nc3ccccc3OCCCCCCC(=O)NO)[C@H]3COC(=O)[C@H]23)OCO4)cc(OC)c1O`: the IC50 was 0.155 µM.

Turning to `COc1cc([C@@H]2c3cc4c(cc3[C@@H](Nc3ccc(NC(=O)CCCCCC(=O)NO)cc3)[C@H]3COC(=O)[C@H]23)OCO4)cc(OC)c1O`, the IC50 is 0.52 µM.

As to `COc1cc([C@@H]2c3cc4c(cc3[C@@H](Nc3ccccc3OCCCCC(=O)NO)[C@H]3COC(=O)[C@H]23)OCO4)cc(OC)c1O`, the IC50 is 0.899 µM.

Another experiment deals with Histone deacetylase 1 (Homo sapiens, UniProt Q13547). Put plainly: Inhibition of human recombinant HDAC1 expressed in baculovirus infected insect high5 cells using Ac-Lys-Tyr-Lys (epsilon-acetyl)-AMC as substrate after 3 to 24 hrs by fluorescence assay.
Sequence of Histone deacetylase 1 (Q13547 whole entry): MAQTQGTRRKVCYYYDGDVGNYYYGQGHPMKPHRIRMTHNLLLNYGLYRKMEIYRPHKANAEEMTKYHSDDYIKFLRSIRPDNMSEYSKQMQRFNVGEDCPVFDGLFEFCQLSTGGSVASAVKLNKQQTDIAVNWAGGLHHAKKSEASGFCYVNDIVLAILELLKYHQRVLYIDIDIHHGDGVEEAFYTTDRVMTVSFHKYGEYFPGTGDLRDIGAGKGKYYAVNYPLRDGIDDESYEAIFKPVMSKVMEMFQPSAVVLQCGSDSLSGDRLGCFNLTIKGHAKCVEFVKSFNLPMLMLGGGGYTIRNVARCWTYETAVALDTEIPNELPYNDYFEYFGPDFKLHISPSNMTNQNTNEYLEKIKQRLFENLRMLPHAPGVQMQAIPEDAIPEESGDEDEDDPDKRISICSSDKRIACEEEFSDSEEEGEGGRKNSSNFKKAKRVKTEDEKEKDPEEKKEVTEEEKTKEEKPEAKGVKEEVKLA
Conditions: not given
As for `COc1cc([C@@H]2c3cc4c(cc3[C@@H](Nc3cccc(NC(=O)CCCCCCC(=O)NO)c3)[C@H]3COC(=O)[C@H]23)OCO4)cc(OC)c1O`, the IC50 came to 0.1 µM.

In the case of `COc1cc([C@@H]2c3cc4c(cc3[C@@H](Nc3ccc(OCCCC(=O)NO)cc3)[C@H]3COC(=O)[C@H]23)OCO4)cc(OC)c1O`, the IC50 amounted to 0.243 µM.

On to `COc1cc([C@@H]2c3cc4c(cc3[C@@H](Nc3ccc(OCCCCCCC(=O)NO)cc3)[C@H]3COC(=O)[C@H]23)OCO4)cc(OC)c1O`, for which the IC50 was determined as 0.029 µM.

Consider `COc1cc([C@@H]2c3cc4c(cc3[C@@H](Nc3ccccc3OCCCCCCC(=O)NO)[C@H]3COC(=O)[C@H]23)OCO4)cc(OC)c1O`, for which the IC50 is 0.072 µM.

Regarding `COc1cc([C@@H]2c3cc4c(cc3[C@@H](Nc3ccc(NC(=O)CCCCCC(=O)NO)cc3)[C@H]3COC(=O)[C@H]23)OCO4)cc(OC)c1O`, the IC50 was 0.59 µM.

Regarding `COc1cc([C@@H]2c3cc4c(cc3[C@@H](Nc3ccccc3OCCCCC(=O)NO)[C@H]3COC(=O)[C@H]23)OCO4)cc(OC)c1O`, the IC50 was 0.369 µM.

Turning to `COc1cc([C@@H]2c3cc4c(cc3[C@@H](O[C@@H]3O[C@@H]5CO[C@@H](C)O[C@H]5[C@H](O)[C@H]3O)[C@H]3COC(=O)[C@H]23)OCO4)cc(OC)c1O` [ETOPOSIDE], the IC50 is above 34 µM.

The test system of another experiment is HCT-116. The experiment can be described thus: cells. The note with it: Homo sapiens, HCT-116, 72 h.
Description: Antiproliferative activity against human HCT116 cells assessed as cell viability after 72 hrs by MTT assay
The compound `COc1cc([C@@H]2c3cc4c(cc3[C@@H](Nc3cccc(NC(=O)CCCCCCC(=O)NO)c3)[C@H]3COC(=O)[C@H]23)OCO4)cc(OC)c1O` came in with an IC50 of 8.57 µM.

In the case of `COc1cc([C@@H]2c3cc4c(cc3[C@@H](Nc3ccc(OCCCC(=O)NO)cc3)[C@H]3COC(=O)[C@H]23)OCO4)cc(OC)c1O`, the IC50 turned out to be 5.37 µM.

`COc1cc([C@@H]2c3cc4c(cc3[C@@H](Nc3ccc(OCCCCCCC(=O)NO)cc3)[C@H]3COC(=O)[C@H]23)OCO4)cc(OC)c1O` came in with an IC50 of 5.03 µM.

On to `COc1cc([C@@H]2c3cc4c(cc3[C@@H](Nc3ccccc3OCCCCCCC(=O)NO)[C@H]3COC(=O)[C@H]23)OCO4)cc(OC)c1O`, for which the IC50 came to 11.3 µM.

As to `COc1cc([C@@H]2c3cc4c(cc3[C@@H](Nc3ccc(NC(=O)CCCCCC(=O)NO)cc3)[C@H]3COC(=O)[C@H]23)OCO4)cc(OC)c1O`, the IC50 came to 2.94 µM.

`COc1cc([C@@H]2c3cc4c(cc3[C@@H](Nc3ccccc3OCCCCC(=O)NO)[C@H]3COC(=O)[C@H]23)OCO4)cc(OC)c1O`: the IC50 turned out to be 16.5 µM.

As for `COc1cc([C@@H]2c3cc4c(cc3[C@@H](O[C@@H]3O[C@@H]5CO[C@@H](C)O[C@H]5[C@H](O)[C@H]3O)[C@H]3COC(=O)[C@H]23)OCO4)cc(OC)c1O` [ETOPOSIDE], it took 0.87 µM to reach half-maximal inhibition (IC50).

For the origin of these results see ChEMBL document CHEMBL2439983, “The discovery and optimization of novel dual inhibitors of topoisomerase II and histone deacetylase” (Bioorg Med Chem, 2013).
